From patent publication US5389638A, “Tetrahydroisoquinolines as alpha-2 antagonists and biogenic amine uptake inhibitors” (Abbott Laboratories, priority 1993, dated 1995) come the findings set out here.

What is called IC50 is the point on the concentration scale where inhibition reaches its midpoint. One may read the Ki as a dissociation constant, usually derived from enzyme kinetics or from competition with a known ligand.

One experiment deals with norepinephrine uptake. The experiment is described as follows: inhibition of [3H]-amine uptake by synaptosome preparations, hypothalamus (norepinephrine). Format: biochemical, rat (male Sprague-Dawley). The following applies: hypothalamus synaptosomes, [3H]-amine approx. 100 nM, 4 min, 37° C.; read-out: Biogenic amine uptake IC50 NE. The source says:
(§1) The primary method of evaluation of biogenic amine uptake activity has been the in vitro determination of the inhibition of radioactive amine uptake by synaptosome preparations of brain tissue. Basic procedures used are those described by Snyder and Coyle (Snyder, S. H. and J. T. Coyle, Regional Differences in ^3 H-Norepinephrine and ^3 H-Dopamine Uptake into Rat Brain Homogenates, Journal of Pharmacology and Experimental Therapeutics 1969, 165: 78-86) and Wong et al. (Wong, D. T., J-S. Horng and R. W. Fuller, Kinetics of Norepinephrine Accumulation into Synaptosomes of Rat Brain-Effects of Amphetamine and Chloroamphetamines, Biochemical Pharmacology 1973, 22:311-322). Briefly, male Sprague-Dawley rats were decapitated and regions of their brains dissected according to the procedures of Glowinski and Iversen (Glowinski, J. and L. L. Iversen, Regional Studies of Catecholamines in the Rat Brain--I: The Disposition of [^3 H]-Norepinephrine, [^3 H]-Dopamine and [^3 H]-DOPA in Various Regions of the Brain, Journal of Neurochemistry 1966, 13: 655-669). Hypothalamus (norepinephrine-), cortex (serotonin) and striatum (dopamine-uptake) were homogenized in 10, 5, and 20 volumes, respectively,of 0.32M sucrose using a Teflon/glass Potter-Elvehjem tissue grinder. Samples were centrifuged at 1000×G for 10 minutes and the supernatants harvested and used in the assay. Aliquots of tissue ([…]) were added to 750 mL of Kreb's solution (composition in mM; sodium chloride 118, potassium chloride 4.0, calcium chloride 1.13, potassium dihydrogen phosphate 1.12, magnesium sulfate 1.20, sodium bicarbonate 2.4, D-glucose 5.0, disodium ethylenediaminetetraacetic acid 1.5, ascorbic acid 1.0, and Pargyline, 12.5 mM, pH=7.4, aerated with 95% oxygen, 5% carbon dioxide), 50 mL of test compound diluted in 0.3 mM ascorbic acid, and […] [^3 H]-amine, final concentration approximately 100 nM. Tissues were incubated for 4 minutes at 37° C., followed by rapid vacuum filtration over Whatman GF/B filters and washed with 50 mM Tris-HCl (pH=7.4). Nonspecific uptake was estimated in duplicate samples incubated at 0 ° C. Data were analyzed as described previously (J. F. DeBemardis, D. J. Kerkman, D. L. Arendsen, S. A. Buckner, J. J. Kyncl, and A. A. Hancock, Conformationally Defined Adrenergic Agents. 5. Resolution, Absolute Configuration, and Pharmacological Characterization of the Enantiomers of 2-[5,6-Dihyroxy-1,2,3,4-tetrahydro-1-1-naphthyl]imidazoline: A Potent Agonist at a-Adrenoceptors, Journal of Medicinal Chemistry 1987, 30: 1011-1017).

The subject of another experiment is dopamine uptake. Put plainly: inhibition of [3H]-amine uptake by synaptosome preparations, striatum (dopamine). Format: biochemical, rat (male Sprague-Dawley). The following applies: striatum synaptosomes, [3H]-amine approx. 100 nM, 4 min, 37° C.; read-out: Biogenic amine uptake IC50 DA.
Description: as §1

For another experiment, the target named is T1, alpha-1 receptor (Rattus norvegicus, UniProt P15823).
T1 sequence (P15823 1-515): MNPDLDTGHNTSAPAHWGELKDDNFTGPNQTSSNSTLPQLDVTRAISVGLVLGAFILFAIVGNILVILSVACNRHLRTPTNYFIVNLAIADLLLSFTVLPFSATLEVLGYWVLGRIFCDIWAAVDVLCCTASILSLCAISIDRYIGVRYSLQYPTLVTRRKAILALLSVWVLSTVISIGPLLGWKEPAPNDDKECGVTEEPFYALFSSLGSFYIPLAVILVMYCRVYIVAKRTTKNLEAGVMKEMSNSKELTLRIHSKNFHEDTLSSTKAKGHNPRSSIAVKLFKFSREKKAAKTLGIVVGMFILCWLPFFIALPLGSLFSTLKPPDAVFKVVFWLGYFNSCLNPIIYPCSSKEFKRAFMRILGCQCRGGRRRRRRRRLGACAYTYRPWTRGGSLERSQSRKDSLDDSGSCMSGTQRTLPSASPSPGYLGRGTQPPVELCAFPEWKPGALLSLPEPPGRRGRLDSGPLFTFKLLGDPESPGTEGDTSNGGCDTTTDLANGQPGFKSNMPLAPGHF
Put plainly: alpha-1 receptor radioligand binding, rat liver homogenates, [3H]-prazosin.

The next experiment has as its system serotonin (5-HT) uptake. The experiment is described as follows: inhibition of [3H]-amine uptake by synaptosome preparations, cortex (serotonin). It counts as biochemical, rat (male Sprague-Dawley). The conditions noted are these: cortex synaptosomes, [3H]-amine approx. 100 nM, 4 min, 37° C.; read-out: Biogenic amine uptake IC50 5-HT.
Description: as §1

For another experiment, the target named is alpha-2 receptor. Put plainly: alpha-2 receptor radioligand binding, rat cerebral cortices, [3H]-rauwolscine. The conditions noted are these: for Ki: rat cerebral cortices, [3H]-rauwolscine, read-out: Radioligand binding Ki α2; for Alpha-2 selectivity Ki α1/Ki α2: ratio Ki α1/Ki α2.

Structures can show the parent of a compound that is named as a salt. Where two headings read alike, the source gives them in different places.

With `CNCCC(Oc1ccc(C(F)(F)F)cc1)c1ccccc1` (stereo not shown) [Fluoxetine, reference compound], the IC50 in the experiment on norepinephrine uptake was determined as 1310 nM; with dopamine uptake, 15200 nM.
Take `CN1CCc2c(ccc3c2OCO3)[C@H]1CN1CC[C@H](c2ccccc2)C1` [Example 10, 5,6-Methylenedioxy-2-methyl-1(S)-[3'(R)-phenylpyrrolidino]methyl-1,2,3,4-tetrahydroisoquinoline dihydrochloride]: the values for the IC50 in the experiment with norepinephrine uptake, with serotonin (5-HT) uptake and in the experiment with dopamine uptake were 214 nM, 754 nM and 11700 nM, respectively. For the same molecule, the Ki at alpha-1 receptor turned out to be 374 nM; at alpha-2 receptor, 20.2 nM. Besides, the Alpha-2 selectivity Ki α1/Ki α2 in the experiment on alpha-2 receptor was found to be 18.5.
In the case of `COc1cccc2c1CCN(C)C2CN1CCC(c2ccccc2)C1` (stereo not shown) [Example 3, 5-Methoxy-2-methyl-1-(3-phenylpyrrolidino)methyl-1,2,3,4-tetrahydroisoquinoline dihydrochloride], the figures for the IC50 in the experiment with norepinephrine uptake, in the experiment with serotonin (5-HT) uptake and in the experiment with dopamine uptake were 621 nM, 4450 nM and 9400 nM, respectively. Besides, the Ki amounted to 306 nM at alpha-1 receptor and 6 nM at alpha-2 receptor. In addition, the Alpha-2 selectivity Ki α1/Ki α2 in the experiment with alpha-2 receptor is 51.
On to `COC(=O)[C@H]1[C@H]2C[C@H]3c4[nH]c5ccccc5c4CCN3C[C@H]2CC[C@@H]1O` [Rauw*, Rauwolscine, reference compound], for which the IC50 with norepinephrine uptake is over 100 nM. Further, the affinity at alpha-1 receptor corresponds to a Ki of 450 nM.
As for `CN(CCc1ccccc1)C[C@H]1c2ccc3c(c2CCN1C)OCO3` [Example 12, 5,6-Methylenedioxy-2-methyl-1(R)-(((N-methyl-N-phenylethyl)amino)methyl)-1,2,3,4-tetrahydroisoquinoline dihydrochloride], the IC50 in the experiment with norepinephrine uptake is 1290 nM; in the experiment on serotonin (5-HT) uptake, 1410 nM; in the experiment on dopamine uptake, 25500 nM. For the same molecule, the Ki was found to be 1020 nM at alpha-1 receptor and 0.98 nM on alpha-2 receptor. Also, the Alpha-2 selectivity Ki α1/Ki α2 in the experiment on alpha-2 receptor came to 1040.
On alpha-1 receptor, `CN1CCc2cc3c(cc2C1CN1CCC(c2ccccc2)C1)OCO3` (stereo not shown) [Example 6, 6,7-Methylenedioxy-2-methyl-1-(3-phenylpyrrolidino)methyl-1,2,3,4-tetrahydroisoquinoline dimethanesulfonate] returned a Ki of 72 nM. Moreover, at alpha-2 receptor, the Ki is 11.4 nM and the Alpha-2 selectivity Ki α1/Ki α2 stood at 6.
Take `CN1CCc2c(ccc3c2OCO3)[C@@H]1CN1CC[C@H](c2ccccc2)C1` [Example 8, 5,6-Methylenedioxy-2-methyl-1(R)-(3'(R)-phenylpyrrolidino)methyl-1,2,3,4-tetrahydroisoquinoline dihydrochloride]: the IC50 turned out to be 489 nM with norepinephrine uptake, 1110 nM in the experiment with serotonin (5-HT) uptake and 9300 nM in the experiment on dopamine uptake. The Ki at alpha-1 receptor (read-out: Radioligand binding Ki α1, rat liver homogenates, [3H]-prazosin) was 446 nM; at alpha-2 receptor, 2.5 nM. The Alpha-2 selectivity Ki α1/Ki α2 in the experiment with alpha-2 receptor was found to be 178.
Take `CN(CCc1ccccc1)C[C@@H]1c2ccc3c(c2CCN1C)OCO3` [Example 13, 5,6-Methylenedioxy-2-methyl-1(S)-(((N-methyl-N-phenylethyl)amino)methyl-1,2,3,4-tetrahydroisoquinolinedihydrochloride]: the IC50 in the experiment with norepinephrine uptake was 210 nM; in the experiment with serotonin (5-HT) uptake it was 2890 nM; in the experiment with dopamine uptake it was 10600 nM. Also, the Ki on alpha-1 receptor stood at 542 nM; at alpha-2 receptor it was 7.1 nM. Further, the Alpha-2 selectivity Ki α1/Ki α2 with alpha-2 receptor was 76.
As to `COc1ccc2c(c1)CCN(C)C2CN(C)CCc1ccccc1` (stereo not shown) [Example 2, 6-Methoxy-2-methyl-1-((N-methyl-N-(2-phenylethyl)amino)methyl)-1,2,3,4-tetrahydroisoquinoline dihydrochloride], the figures for the half-inhibitory concentration (IC50) with norepinephrine uptake, with serotonin (5-HT) uptake and in the experiment with dopamine uptake were 1240 nM, 7710 nM and 26500 nM, respectively. The figures for the Ki at alpha-1 receptor and at alpha-2 receptor were 175 nM and 4.6 nM, respectively. Further, the Alpha-2 selectivity Ki α1/Ki α2 in the experiment on alpha-2 receptor amounted to 38.
For the molecule `CN1CCc2c(ccc3c2OCO3)[C@@H]1CN1CC[C@@H](c2ccccc2)C1` [Example 9, 5,6-Methylenedioxy-2-methyl-1(R)-[3'(S)-phenylpyrrolidino]methyl-1,2,3,4-tetrahydroisoquinoline dihyrochloride], the values for the IC50 in the experiment with norepinephrine uptake, in the experiment with serotonin (5-HT) uptake and with dopamine uptake were 426 nM, 1580 nM and 9540 nM, respectively. Also, the Ki came to 168 nM at alpha-1 receptor and 2.1 nM at alpha-2 receptor. The Alpha-2 selectivity Ki α1/Ki α2 in the experiment on alpha-2 receptor was found to be 80.
For the molecule `COc1ccc2c(c1)CCN(C)C2CN1CCC(c2ccccc2)C1` (stereo not shown) [Example 1, 6-Methoxy-2-methyl-1-(3-phenylpyrrolidino)methyl-1,2,3,4-tetrahydroisoquinoline dihydrochloride], the values for the IC50 in the experiment with norepinephrine uptake, with serotonin (5-HT) uptake and in the experiment with dopamine uptake were 4430 nM, 9180 nM and 28300 nM, respectively. The Ki was determined as 120 nM on alpha-1 receptor and 6.2 nM on alpha-2 receptor. Besides, the Alpha-2 selectivity Ki α1/Ki α2 in the experiment on alpha-2 receptor is 19.
Consider `CN1CCc2c(ccc3c2OCO3)C1CN1CCC(c2ccccc2)C1` (stereo not shown) [Example 5, 5,6-Methylenedioxy-2-methyl-1-N-(3-phenylpyrrolinodino)methyl-1,2,3,4-tetrahydroisoquinoline dihydrochloride], for which the IC50 stood at 249 nM with norepinephrine uptake, 2030 nM with serotonin (5-HT) uptake and 11400 nM in the experiment on dopamine uptake. Moreover, the Ki at alpha-1 receptor turned out to be 180 nM; at alpha-2 receptor, 4.3 nM. Also, the Alpha-2 selectivity Ki α1/Ki α2 with alpha-2 receptor is 42.
As to `CN1CCc2c(ccc3c2OCO3)[C@H]1CN1CC[C@@H](c2ccccc2)C1` [Example 11, 5,6-Methylenedioxy-2-methyl-1(S)-[3'(S)-phenylpyrrolidino]methyl-1,2,3,4-tetrahydroisoquinoline dihydrochloride], the IC50 is 116 nM in the experiment with norepinephrine uptake, 1700 nM with serotonin (5-HT) uptake and 4950 nM in the experiment on dopamine uptake. Besides, the Ki at alpha-1 receptor amounted to 157 nM; on alpha-2 receptor it was 32.5 nM. In the experiment with alpha-2 receptor, the Alpha-2 selectivity Ki α1/Ki α2 stood at 4.8.
`CN(CCc1ccccc1)CC1c2cc3c(cc2CCN1C)OCO3` (stereo not shown) [Example 7, 6,7-Methylenedioxy-2-methyl-1-((N-methyl-N-(2-phenylethyl)amino)methyl)-1,2,3,4-tetrahydroisoquinoline dihydrochloride]: the IC50 in the experiment on norepinephrine uptake stood at 589 nM; in the experiment with serotonin (5-HT) uptake, 6270 nM; in the experiment with dopamine uptake, 49800 nM. Further, the Ki on alpha-1 receptor was found to be 613 nM; on alpha-2 receptor, 6.4 nM. For the same molecule, the Alpha-2 selectivity Ki α1/Ki α2 in the experiment on alpha-2 receptor was determined as 96.
In the case of `CN(CCc1ccccc1)CC1c2ccc3c(c2CCN1C)OCO3` (stereo not shown) [Example 4, 5,6-Methylenedioxy-2-methyl-1-((N-methyl-N-(2-phenylethyl)amino)methyl)-1,2,3,4-tetrahydroisoquinoline dihydrochloride], the IC50 with norepinephrine uptake worked out at 885 nM; with serotonin (5-HT) uptake, 2600 nM; with dopamine uptake, 24700 nM. Further, the Ki at alpha-1 receptor was found to be 621 nM; on alpha-2 receptor it was 2.6 nM. Also, the Alpha-2 selectivity Ki α1/Ki α2 with alpha-2 receptor turned out to be 238.
